The values that follow come from PubChem BioAssay (NCI).

Holding throughout (experiment): NCI-60 cell line screen, 48 h
The subject of assay [1] is CCRF-CEM leukemia.
The subject of assay [2] is HCC-2998 colon.
Assay [3] concerns UACC-62 melanoma.
Assay [4] concerns DU-145 prostate.
Assay [5] concerns OVCAR-4 ovarian.
The subject of assay [6] is IGROV1 ovarian.
Assay [7] has as its system SF-268 CNS.
For assay [8], the system named is MDA-MB-231 breast.
In assay [9] the test system is SK-MEL-28 melanoma.
In assay [10] the test system is NCI-H23 lung.

Where “and” joins values, the source holds several entries; their conditions need not be identical. Equal entries are not always repeated.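 Growth conditions: 96-well plates. Treatment: test compound, 48 hours, 5 concentrations. Analysis: linear interpolation between bracketing concentrations; unreached endpoints set to highest concentration. At the GI50, growth is halved. TGI: concentration producing complete growth inhibition.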 Where a SMILES comes first, the peptide text is derived from it. [ ]: non-standard residue; d: D form. The star is where a group is joined. Bn2Val = CC(C)[C@@H](C(=O)*)N(Cc1ccccc1)Cc1ccccc1; NH(3,4-diMeO-benzyl) = COc1ccc(CN*)cc1OC; NMeV = CN[C@H](C(=O)O)C(C)C; dNMeA = CN[C@H](C)C(=O)O

`COc1ccc(CNC(=O)[C@@H](C)N(C)C(=O)[C@@H]2CCCN2C(=O)[C@H](C(C)C)N(C)C(=O)[C@@H](NC(=O)[C@H](C(C)C)N(Cc2ccccc2)Cc2ccccc2)C(C)C)cc1OC` (Bn2Val-V[NMeV]P[dNMeA]-{NH(3,4-diMeO-benzyl)}): the GI50 in [1] was 0.756 µM; in assay [3], 13.5 µM; in [5] it was 7.54 µM; in assay [6], 11.1 µM; in assay [7], 17.6 µM; in [8], 10.8 µM. Besides, in assay [9], the GI50 was 13.5 µM. The TGI in [1] is 16.9 µM and 44.2 µM; in assay [2], 21.2 µM; in assay [3], 14 µM and 27.2 µM; in assay [4], 50 µM and 42.3 µM; in [5], 50 µM and 42.2 µM; in assay [6] it was 13.6 µM and 28.3 µM. Further, the TGI in [7] is 14.8 µM and > 100 µM; in assay [8], 18.8 µM and 22.7 µM; in [9], 17.6 µM and 28.3 µM; in assay [10] it was 26.6 µM and 42.4 µM.

For `COc1cccc(-c2nn(-c3ccccc3)cc2-c2ccnc(NCCCNS(=O)(=O)c3cccc(F)c3)c2)c1`, the GI50 in assay [1] was 4.62 µM; in assay [2], 3.92 µM; in [3] it was 4.65 µM; in assay [4] it was 6.33 µM; in assay [5], 3.28 µM; in [6], 4.96 µM. Further, the GI50 in assay [7] is 5.63 µM; in [8], 3.43 µM; in [9] it was 6.82 µM; in assay [10], 4.47 µM. The TGI in [1], in [2], in assay [3], in assay [4], in assay [5] and in assay [6] was greater than 100 µM each time. The TGI in [7], in assay [8], in [9] and in assay [10] was greater than 100 µM in each case.

For `C[C@@H]1Cc2c([nH]c3ccccc23)[C@@H](c2c(F)cc(/C=C/C(=O)O)cc2F)N1CC(C)(C)F`, the GI50 in assay [1] is 12 µM; in [2], 10.4 µM; in assay [3], 3.9 µM; in assay [4], 19.1 µM; in [5], 15.2 µM; in assay [6] it was 16.4 µM. The GI50 in [7] was 14.2 µM; in [8] it was 18.4 µM; in assay [9] it was 13.1 µM; in [10], 11.2 µM. In addition, the TGI in assay [1] is 33.8 µM; in assay [2], 25.6 µM; in assay [3], 17.3 µM; in [4] it was greater than 62.3 µM; in assay [5], 52.8 µM; in assay [6] it was 37.2 µM. The TGI stood at 31.8 µM in assay [7], 38 µM in assay [8], 30.9 µM in assay [9] and 33.8 µM in [10].

For the compound `COc1ccccc1NC(=O)c1ccc(/C=C/C(=O)c2nccn2C)cc1`, the GI50 was 0.669 µM in assay [1]; 0.487 µM in assay [2]; 0.472 µM in assay [3]; 0.504 µM in assay [4]; 0.74 µM in assay [5]; 0.523 µM in [6]. In addition, the GI50 is 0.631 µM in [7], 0.835 µM in assay [8], 0.57 µM in [9] and 0.561 µM in assay [10]. For the same compound, the TGI in [1] came to 8.01 µM; in assay [2] it was 0.912 µM; in [3], 0.986 µM; in [4] it was 1.09 µM; in assay [5], 5.67 µM; in assay [6], 1.34 µM. Also, the TGI turned out to be 1.97 µM in [7], 9.25 µM in assay [8], 1.44 µM in assay [9] and 1.5 µM in assay [10].

For `S=C1NCCN1C1=Nc2ccccc2CO1`, the GI50 in assay [1] is greater than 100 µM; in assay [2] it was greater than 100 µM; in assay [3], greater than 100 µM; in [4], greater than 100 µM; in [5], greater than 100 µM; in [6] it was 74 µM. Also, the GI50 in assay [7], in assay [8], in assay [9] and in [10] was greater than 100 µM each time. Besides, the TGI in assay [1], in assay [2], in assay [3], in assay [4], in assay [5] and in assay [6] was greater than 100 µM each time. Further, the TGI in assay [7], in assay [8], in assay [9] and in assay [10] was greater than 100 µM throughout.
